From patent US7964613B2 (Asahi Kasei Pharma Corporation, priority 2007, dated 2011)

Tests used:
TNF-α production = experiment: Inhibitory effect on TNF-α production in mice (LPS); assay type: in vivo, BALB/c mice; conditions: Mus musculus, 1.5 h; oral administration of 30 mg/kg, LPS 5 μg i.p. 60 minutes later, plasma after 90 minutes; read-out: TNF-α production suppressing action
Protocol: BALB/c mice (Japan CRJ, famale) were used as experimental animals. Each test compound was dissolved in distilled water at a concentration suitable for the examination. The weight of each mouse was measured, a test compound solution was orally administered in a volume corresponding to 10 ml/kg, and only distilled water was administered to the control group. Each group consisted of five to seven animals. LPS was dissolved in physiological saline, and intraperitoneally administered to each mouse in an amount of 5 μg. The test compound was administered first, and LPS (lipopolysaccharide, Sigma) was administered 60 minutes later. After 90 minutes, blood was collected from the abdominal large vein in the presence of heparin, and plasma was obtained by centrifugation. TNF-α content in the plasma was measured by using the ELISA method.

[1] = tested on: rabbit normal intraocular pressure; experiment: Intraocular pressure reducing action; assay type: in vivo, Japanese white rabbit; conditions: Oryctolagus cuniculus, topical, read-out: intraocular pressure reducing degree; for inhibition in vivo at 3000 µM: 3 mM aqueous solution, 50 μl to the left eye, max IOP reduction (2, 4, 6 hours) / value immediately before administration
In short: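 Japanese white rabbits (~2 kg) under topical anaesthesia received 50 μl of a 3 mM aqueous test solution in the left eye, right eye untreated. IOP read by tonometer before and at 2, 4, 6 h; maximal left–right difference divided by pre-dose IOP ×100 gives % reduction.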

human ROCK1 = biological target: T1, human ROCK1 (Homo sapiens, UniProt Q13464); experiment: Measurement of Rho kinase inhibitory activity (ELISA of MBS phosphorylation); assay type: biochemical; conditions: human ROCK1, MBS substrate, 100 μM ATP, 30° C. for 10 minutes
T1 construct: His tag (N); host or cells: insect cells (Sf9)
T1 sequence (Q13464 1-727): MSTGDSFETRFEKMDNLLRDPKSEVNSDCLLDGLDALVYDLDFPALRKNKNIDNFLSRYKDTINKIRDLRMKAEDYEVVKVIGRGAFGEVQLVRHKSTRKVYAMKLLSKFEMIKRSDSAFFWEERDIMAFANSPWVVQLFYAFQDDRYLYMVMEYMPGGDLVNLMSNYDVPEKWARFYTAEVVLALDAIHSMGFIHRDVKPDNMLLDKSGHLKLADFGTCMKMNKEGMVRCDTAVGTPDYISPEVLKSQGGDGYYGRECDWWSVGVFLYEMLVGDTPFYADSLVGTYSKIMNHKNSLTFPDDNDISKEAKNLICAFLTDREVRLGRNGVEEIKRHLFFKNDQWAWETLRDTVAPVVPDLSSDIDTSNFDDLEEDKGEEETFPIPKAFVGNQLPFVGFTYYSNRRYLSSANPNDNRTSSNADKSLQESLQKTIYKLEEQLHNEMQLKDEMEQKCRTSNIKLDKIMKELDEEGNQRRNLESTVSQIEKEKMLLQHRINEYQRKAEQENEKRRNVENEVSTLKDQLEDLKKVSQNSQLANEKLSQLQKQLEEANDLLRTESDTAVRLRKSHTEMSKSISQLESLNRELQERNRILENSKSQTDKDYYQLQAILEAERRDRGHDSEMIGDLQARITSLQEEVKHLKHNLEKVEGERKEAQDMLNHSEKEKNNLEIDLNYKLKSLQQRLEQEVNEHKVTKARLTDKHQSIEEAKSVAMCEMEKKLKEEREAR
Protocol: In this test, human ROCK1 was used as Rho kinase, MBS (myosin binding subunit, subunit constituting myosin phosphatase) was used as the substrate of Rho kinase, and an anti-phosphorylated MBS antibody was used for detection of phosphorylation. The activity for inhibiting Rho kinase was determined by measuring phosphorylation of MBS by the Rho kinase by ELISA in the presence of an appropriately diluted test compound. As the Rho kinase used, a recombinant protein (N-terminal His-tagged recombinant human ROCK1 residues (1Met-[…])) was used, which was produced in insect cells (Sf9) using a sequence (1-727), of which activity was confirmed in the paper of Ishizaki et al. (Ishizaki, T. et al., FEBS Letters, 404, pp 118-124, 1997), based on the sequence of human ROCK1 (p 160 ROCK) described in the report of Ishizaki et al. (Ishizaki, T. et al., EMBO J., 15, pp 1885-1893, 1996). Further, as the MBS protein and anti-phosphorylated MBS antibody, those prepared according to the method described in the paper of Ito et al. (Ito, K et al., J. Physiol., 546, pp 823-836, 2003) were used.
A solution of MBS (Asahi Kasei Pharma, lot No, 040814n7-10) diluted with PBS to an appropriate concentration was added to an ELISA plate (Maxisorp, Nunc), and left, stand overnight at 4° C., and then the wells were washed twice with a washing solution (WB, washing buffer, 0.1% Tween 20/PBS). To the wells were added 1% bovine serum albumin (Sigma)/PBS, and left for 1 to 3 hours, and then the wells were washed 5 times with WB to prepare a substrate-immobilized plate. Onto this plate, a reaction mixture (5 mM MgSO4/0.1 M NaCl/20 mM HEPES (pH 7.5)/100 μM ATP/5 mM DTT), a test compound, and appropriately diluted human ROCK1 (Asahi Kasei Pharma, lot No, 030126.120-22) were added, and then reacted at 30° C. for 10 minutes. Then, 0.2 M EDTA (pH 7.5) was added to terminate the reaction, and the wells were washed 5 times with WB. A rabbit anti-phosphorylated MBS antibody solution (Asahi Kasei Pharma, lot No, 122676431) diluted 10,000 times with WB containing 1% bovine serum albumin was added to the wells, and after the reaction for 1 hour, the wells were washed 5 times with WB. Goat anti-rabbit IgG-HRP (Zymed) diluted 1,000 times with WB containing 1% bovine serum albumin was added to the wells as the secondary detection antibody and the mixture was reacted for 1 hour, and then the wells were washed 5 times with WB. An OPD (o-phenylenediamine) solution (1 mg/ml OPD, Sigma), 5.1 g/l of citric acid monohydrate, and 18.4 g/l of Na2HPO4.12H2O were added to the wells to develop color, […] was added 5 minutes later to terminate the color development, and absorbance was measured at 490 nm.
The inhibition ratio was calculated as follows. Inhibition ratio(%)=[…]
Further, the inhibition ratio was calculated with changing the concentration of the test compound, and a compound concentration providing an inhibition ratio of 50% was obtained as IC50.

Row | Compound | inhibition in vivo at 30 mg/kg (TNF-α production) | inhibition in vivo at 3000 µM [1] | IC50 (human ROCK1) | inhibition in vivo at 1000 µM ([1]; test compound of 1 mM, same test as Test Example 3)
1 | COCC(=O)N[C@H]1CCN(S(=O)(=O)c2cccc3cncc(Cl)c23)C1 [Example 56-1, (S)-3-(2-Methoxyacetyl)amino-1-(4-chloro-5-isoquinolinesulfonyl)pyrrolidine] | ≥ 30% | ≥ 20% | 1000 to 3000 nM | 
2 | N[C@H]1CCCN(S(=O)(=O)c2cccc3cncc(Br)c23)C1 [Example 2-1, (S)-3-Amino-1-(4-bromo-5-isoquinolinesulfonyl)piperidine] | ≥ 50% |  |  | 
3 | CN[C@H]1CCN(S(=O)(=O)c2cccc3cncc(F)c23)C1 [Example 18-3, (S)-1-(4-Fluoro-5-isoquinolinesulfonyl)-3-(methylamino)pyrrolidine] | ≥ 50% | ≥ 20% |  | 
4 | Cc1ccc(CN[C@H]2CCN(S(=O)(=O)c3cccc4cncc(Br)c34)C2)cc1 [Example 1-12] | ≥ 30% |  | < 1000 nM | 
5 | CN[C@H]1CCN(S(=O)(=O)c2cccc3cncc(Br)c23)C1 [Example 1-3, (S)-1-(4-Bromo-5-isoquinolinesulfonyl)-3-(methylamino)pyrrolidine] | ≥ 50% | ≥ 20% | < 1000 nM | ≥ 20%
6 | O=S(=O)(c1cccc2cncc(Br)c12)N1CC[C@H](NCc2ccco2)C1 [Example 4-1, (S)-3-(2-Furylmethyl)amino-1-(4-bromo-5-isoquinolinesulfonyl)pyrrolidine] | ≥ 30% | ≥ 20% | < 1000 nM | 
7 | NOCC(=O)N[C@H]1CCN(S(=O)(=O)c2cccc3cncc(Cl)c23)C1 [Example 101, (S)-3-[2-(Aminooxy)acetyl]amino-1-(4-chloro-5-isoquinolinesulfonyl)pyrrolidine] |  | ≥ 20% | < 1000 nM | 
8 | Cn1cccc1CN[C@H]1CCN(S(=O)(=O)c2cccc3cncc(Br)c23)C1 [Example 1-20] |  | 10 to 20% | < 1000 nM | 
9 | Cc1cncc2cccc(S(=O)(=O)N3CC[C@H](NC4CCCC4)C3)c12 [Example 8-29] |  | 5 to 10% | 1000 to 3000 nM | 
10 | CC(N)C1CCN(S(=O)(=O)c2cccc3cncc(Cl)c23)C1 (stereo not shown) [Example 45, 3-(1-Aminoethyl)-1-(4-chloro-5-isoquinolinesulfonyl)pyrrolidine] |  | 5 to 10% | 1000 to 3000 nM | 
11 | O=C(CCN1CCCCC1)N[C@H]1CCN(S(=O)(=O)c2cccc3cncc(Cl)c23)C1 [Example 80, (S)-3-[3-(Piperidin-1-yl)propionyl]amino-1-(4-chloro-5-isoquinolinesulfonyl)pyrrolidine] |  | 5 to 10% | 1000 to 3000 nM | 
12 | Cc1cncc2cccc(S(=O)(=O)N3CC[C@H](NC4CCOCC4)C3)c12 [Example 8-31] |  | 10 to 20% | 1000 to 3000 nM | 
13 | CCc1cncc2cccc(S(=O)(=O)N3CC[C@H](N)C3)c12 [Example 23-1, (S)-3-Amino-1-(4-ethyl-5-isoquinolinesulfonyl)pyrrolidine] |  | 10 to 20% | < 1000 nM | 
14 | Cc1cncc2cccc(S(=O)(=O)N3CCC[C@@H](N)C3)c12 [Example 22-2, (R)-3-Amino-1-(4-methyl-5-isoquinolinesulfonyl)piperidine] |  | 10 to 20% | < 1000 nM | 
15 | O=S(=O)(c1cccc2cncc(Br)c12)N1CC[C@H](NCc2ccoc2)C1 [Example 1-14] |  | 5 to 10% | < 1000 nM | 
16 | O=S(=O)(c1cccc2cncc(Br)c12)N1CC[C@H](NC2CCOCC2)C1 [Example 1-30] | ≥ 30% | ≥ 20% | 1000 to 3000 nM | 
17 | Nc1cncc2cccc(S(=O)(=O)N3CC[C@H](N)C3)c12 [Example 12-1, (S)-3-Amino-1-(4-amino-5-isoquinolinesulfonyl)pyrrolidine] |  | 10 to 20% | 1000 to 3000 nM | 
18 | NCCN[C@H]1CCN(S(=O)(=O)c2cccc3cncc(Cl)c23)C1 [Example 19-32] |  | ≥ 20% | 1000 to 3000 nM | 
19 | N[C@@H]1CCN(S(=O)(=O)c2cccc3cncc(Br)c23)C1 [Example 1-2, (R)-3-Amino-1-(4-bromo-5-isoquinolinesulfonyl)pyrrolidine] |  | ≥ 20% | < 1000 nM | 
20 | NCC1CN(S(=O)(=O)c2cccc3cncc(Cl)c23)C1 [Example 60, 3-(Aminomethyl)-1-(4-chloro-5-isoquinolinesulfonyl)azetidine] |  | 5 to 10% | 1000 to 3000 nM | 
21 | Cc1ccc(CN[C@H]2CCN(S(=O)(=O)c3cccc4cncc(C)c34)C2)cc1 [Example 8-12] | ≥ 50% | ≥ 20% | < 1000 nM | 
22 | C=CCN[C@H]1CCN(S(=O)(=O)c2cccc3cncc(C)c23)C1 [Example 8-34] |  | 5 to 10% | < 1000 nM | 
23 | COc1cncc2cccc(S(=O)(=O)N3CC[C@H](N)C3)c12 [Example 15-1, (S)-3-Amino-1-(4-methoxy-5-isoquinolinesulfonyl)pyrrolidine] |  | 5 to 10% | 1000 to 3000 nM | 
24 | CN[C@@H]1CCN(S(=O)(=O)c2cccc3cncc(C)c23)C1 [Example 27, (R)-3-(Methylamino)-1-(4-methyl-5-isoquinolinesulfonyl)pyrrolidine] |  | 5 to 10% | < 1000 nM | 
25 | COCC(=O)N[C@H]1CCN(S(=O)(=O)c2cccc3cncc(Br)c23)C1 [Example 71, (S)-3-(2-Methoxyacetyl)amino-1-(4-bromo-5-isoquinolinesulfonyl)pyrrolidine] | ≥ 30% | ≥ 20% |  | 
26 | O=S(=O)(c1cccc2c(O)ncc(Br)c12)N1CC[C@H](NCc2ccco2)C1 [Example 38-1, (S)-1-(1-Hydroxy-4-bromo-5-isoquinolinesulfonyl)-3-(2-furylmethylamino)pyrrolidine] |  | 5 to 10% | 1000 to 3000 nM | 
27 | CN[C@H]1CCN(S(=O)(=O)c2cccc3c(O)ncc(F)c23)C1 [Example 37-1, (S)-1-(1-Hydroxy-4-fluoro-5-isoquinolinesulfonyl)-3-(methylamino)pyrrolidine] | ≥ 30% |  |  | 
28 | Cc1cncc2cccc(S(=O)(=O)N3CC(N)C3)c12 [Example 26, 3-Amino-1-(4-methyl-5-isoquinolinesulfonyl)azetidine] |  | 5 to 10% | < 1000 nM | 
29 | Cc1cncc2cccc(S(=O)(=O)N3CC[C@H](NCCCNC(=O)Nc4ccccc4)C3)c12 [Example 65-1, (S)—N-[3-[1-(4-Methyl-5-isoquinolinesulfonyl)pyrrolidin-3-yl]aminopropyl],N′-phenylurea] |  | 10 to 20% | < 1000 nM | 
30 | Cc1cncc2cccc(S(=O)(=O)N3CC[C@H](NC4CCC4)C3)c12 [Example 8-28] |  | 5 to 10% | < 1000 nM | 
